The source of these data is patent US9629830B2, “EphA4 inhibitors as neuroprotective agents” (The Hong Kong University of Science and Technology, priority 2013, dated 2017).

Entries after “also recorded” stand apart in the source; their conditions may differ.

One assay relates to APP/PS1 mice. Put plainly: Amyloid plaque deposition and microglial activation in APP/PS1 mice (immunohistochemistry). The class given is in vivo, mouse. As to the method:
For immunohistochemical analysis, mice were anesthetised, transcardially perfused with saline followed by 4% paraformaldehyde (pH 7.4), and the brains were removed^66. After overnight postfixation and a series of cryoprotection, the brains were coronally sectioned at a thickness of 20 μm using a cryostat (Microm HM 560, Thermo Scientific). The sections were stained with β-amyloid (1:200) and Iba1 (1:500) antibodies overnight at 4° C., followed by incubation with appropriate fluorescence-conjugated secondary antibodies and mounted in Hydromount (National diagnostics). Images were taken with a Leica DMRA microscope. For 3,3-diaminobenzidine (DAB) staining, the sections were rehydrated and subjected to antigen retrieval. […]
Images from the same experiment were obtained using identical acquisition settings, and images were analyzed with Metamorph software (Meta Image Series 7.5, Universal Imaging Corp.)^24,58. For quantifying the EphA4 and PSD-95 clusters, two dendrite segments from each neuron were analyzed for quantification. […] The basal threshold values for the background of all images in each experiment were measured. […] To measure the density of clusters in dendrites, the images were first thresholded to include the clusters with intensity 2-fold greater than the signal of an adjacent dendrite, and the total number of clusters and dendrite length were measured automatically. […]

For the next assay, the target named is T1, EphA4 (Rattus norvegicus, UniProt D3ZZK3).
T1 construct: endogenous in cells; host or cells: primary rat cortical neurons (A5), primary rat hippocampal neurons (A7)
T1 sequence (D3ZZK3 20-986): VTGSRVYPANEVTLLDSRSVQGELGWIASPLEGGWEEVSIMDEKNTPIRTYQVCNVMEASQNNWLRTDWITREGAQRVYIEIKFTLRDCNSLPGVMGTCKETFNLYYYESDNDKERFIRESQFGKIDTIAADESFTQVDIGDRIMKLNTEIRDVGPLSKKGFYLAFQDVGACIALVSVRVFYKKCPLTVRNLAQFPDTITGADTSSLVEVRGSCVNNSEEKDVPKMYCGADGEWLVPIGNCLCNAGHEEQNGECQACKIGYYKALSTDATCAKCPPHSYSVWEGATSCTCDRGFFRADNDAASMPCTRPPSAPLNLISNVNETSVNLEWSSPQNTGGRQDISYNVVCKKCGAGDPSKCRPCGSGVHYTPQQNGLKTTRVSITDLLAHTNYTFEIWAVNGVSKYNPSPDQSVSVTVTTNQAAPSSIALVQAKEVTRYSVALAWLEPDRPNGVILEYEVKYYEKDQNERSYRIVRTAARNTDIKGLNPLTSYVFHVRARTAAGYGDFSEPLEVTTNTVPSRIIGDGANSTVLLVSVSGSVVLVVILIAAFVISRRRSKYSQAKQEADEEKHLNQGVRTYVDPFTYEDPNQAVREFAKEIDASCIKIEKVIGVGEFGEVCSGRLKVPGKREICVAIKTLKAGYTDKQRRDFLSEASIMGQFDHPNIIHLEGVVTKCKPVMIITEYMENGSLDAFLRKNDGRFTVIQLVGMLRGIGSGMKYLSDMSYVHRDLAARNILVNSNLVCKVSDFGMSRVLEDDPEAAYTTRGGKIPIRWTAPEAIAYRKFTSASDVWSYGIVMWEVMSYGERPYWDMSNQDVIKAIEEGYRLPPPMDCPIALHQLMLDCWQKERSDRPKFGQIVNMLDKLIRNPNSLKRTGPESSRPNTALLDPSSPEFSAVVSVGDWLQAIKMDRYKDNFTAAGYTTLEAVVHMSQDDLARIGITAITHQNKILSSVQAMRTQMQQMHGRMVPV
Put plainly: ephrin-A1-induced EphA4 tyrosine phosphorylation in cortical neurons (immunoprecipitation, western blot). It counts as cell-based. To be noted: cortical neurons pretreated with compound, then ephrin-A1; western blot for P-Tyr. As to the method: Primary cortical and hippocampal neurons were prepared from embryonic day 18-19 rat embryos as described previously^24. Briefly, cortical neurons (6×10^6 per plate) were plated on 100-mm culture dishes coated with poly-D-lysine (12.5 μg/mL; Sigma). Rat hippocampal neurons were seeded on 18-mm coverslips coated with poly-D-lysine (50 μg/mL) at a density of 0.5×10^5/18-mm coverslip for immunocytochemical analysis, 0.1×10^5/18-mm coverslip for growth cone collapse assay, or 1×10^5 or 1.5×10^5/18-mm coverslip for mEPSC recording. Neurons were fed Neurobasal medium (Invitrogen) supplemented with 2% B27 (Invitrogen). Acute brain slices were prepared from P15-P17 Sprague-Dawley rats. Briefly, the rats were rapidly decapitated, and their brains were immersed in ice-cold artificial cerebrospinal fluid (ACSF). The hippocampus was dissected, and 300-μm-thick slices were prepared using a vibratome (Lieca). The slices were then transferred into an incubating chamber containing circulating ACSF equilibrated with 95% O2+5% CO2 and held at room temperature for at least 2 h for recovery prior to experiments^65.
For the immunoprecipitation assay, lysates were immunoprecipitated with the corresponding antibody for 2 h at 4° C. followed by incubation with protein G Sepharose for 1 h at 4° C.^24. […] EphA4 tyrosine phosphorylation was detected by western blot analysis using 4G10 antibody. […]
A general note: A western blot detects proteins with antibodies after separation by electrophoresis.

The target of a further assay is T2, EphA4 (HT-22 cells) (Mus musculus, UniProt Q03137).
T2 construct: HT-22 cells, a cell line that expresses EphA4; endogenous in cells; host or cells: HT-22 cells
T2 sequence (Q03137 20-986): as the sequence (D3ZZK3 20-986) above, with T270S, Q559K, P874S counted along it
As to the kind of experiment: Cell-based binding of biotinylated ephrin-A1 to the surface of HT-22 cells. To be noted: 10 min pre-incubation; Rhy 300 μM, KYL 100 μM (FIG. 10); biotinylated ephrin-A1 0.5 μg/mL. As to the method:
HT-22 cells were seeded on poly-D-lysine coverslips. […] The cells were then fixed with 4% paraformaldehyde and then immunostained with Alexa Fluor 488-conjugated Streptavidin antibody (Molecular Probes) for surfacing labeling of biotinylated ephrin-A1.

Consider `CC[C@H]1CN2CC[C@]3(C(=O)Nc4ccccc43)[C@@H]2C[C@@H]1/C(=C\OC)C(=O)OC` [Rhy, methyl (7β,16E,20α)-16-(methoxymethylene)-2-oxocorynoxan-17-oate], for which the “amyloid plaques in cortex and hippocampus” value with APP/PS1 mice (APP/PS1 mice, 10-week administration of Rhy versus water) was “number and total area of amyloid plaques decreased significantly”. Besides, the “plaque-associated reactive microglia, Iba1 staining” value with APP/PS1 mice (cortex of APP/PS1 mice administered with Rhy) is “significant reduction of plaque-associated reactive microglia”. On EphA4, the “ephrin-A1-induced EphA4 tyrosine phosphorylation” value is “reduced the specific phosphorylation; also recorded: inhibited Eph-ephrin-A interaction and EphA4 tyrosine phosphorylation”. Moreover, the “binding of ephrin-A1 to HT-22 cells” value at EphA4 (HT-22 cells) is “reduced the binding of ephrin-A1 to HT-22 cells; also recorded: reduces the binding of ephrin-A1 to the surface of HT22 cells”.
